Reference: publication PMC9457583, “New Chemicals Suppressing SARS-CoV-2 Replication in Cell Culture” (Molecules, 2022)
Like-named read-outs stand apart in the source and are kept apart here. Peptide text beside a SMILES is read from it. * marks the point of attachment. Cbz = O=C(OCc1ccccc1)*

Key:
SARS-CoV-2 [1] = experiment: microbe, parasite or virus in culture; format: cell-based
[2] = design: method as in PMID 32855413; settings: read-out: CC50 (cytotoxicity); cited from earlier work
SARS-CoV-2 Mpro = settings: read-out: IC50 (Mpro); cited from earlier work
SARS-CoV-2 [3] = test system: SARS-CoV-2; design: method as in PMID 32855413; settings: cited from earlier work
SARS-CoV-2 [4] = settings: SARS-CoV-2-infected Vero E6/TMPRSS2 cells; cited from earlier work
SARS-CoV-2 [5] = test system: SARS-CoV-2; design: method as in PMID 33062953; settings: cited from earlier work
SARS-CoV-2 [6] = test system: SARS-CoV-2; design: method as in PMID 34726479; settings: Vero E6 cell culture; read-out: EC50 (virus replication); cited from earlier work
SARS-CoV-2 [7] = test system: SARS-CoV-2; design: method as in PMID 35287429; settings: read-out: EC50 (SARS-CoV-2 replication in cell culture); cited from earlier work
[8] = Severe acute respiratory syndrome coronavirus 2, Vero C1008, Vero E6 cells, MOI 0.1, 96 h, MTT, read-out: EC50
[9] = Severe acute respiratory syndrome coronavirus 2, Vero C1008, 96 h

Compound | EC50 (SARS-CoV-2 [1]; [8]) [nM] | melting point [°C] | also measured
Cc1ccc2c(c1)-c1c(ssc1=S)C(C)(C)N2C(=O)COc1ccc2ccccc2c1 [Compound 3c] | 2710 ± 910 | 153 to 154 | 
c1ccc(Nc2nc(Nc3ccccc3)nc(N3CCCCCC3)n2)cc1 [Compound 9b, 6-(azepan-1-yl)-N,N’-diphenyl-1,3,5-triazine-2,4-diamine] | 1040 ± 260 | 160 to 161 | 
CC(C)C[C@H](NC(=O)OCc1ccccc1)C(=O)N[C@@H](CC1CCNC1=O)C(O)S(=O)(=O)O (stereo partly drawn) [GC–376] |  |  | CC50 [2]: > 200000 nM; IC50 (SARS-CoV-2 Mpro): ~300 nM; EC50 (SARS-CoV-2 [3]): ~1000 nM
CC(C)C[C@H](NC(=O)OCc1ccccc1)C(=O)N[C@H](C=O)CC1CCNC1=O (stereo partly drawn) [GC–373] |  |  | CC50 [2]: > 200000 nM; IC50 (SARS-CoV-2 Mpro): […]; EC50 (SARS-CoV-2 [3]): ~1000 nM
CCC(CC)COC(=O)[C@H](C)N[P@](=O)(OC[C@H]1O[C@@](C#N)(c2ccc3c(N)ncnn23)[C@H](O)[C@@H]1O)Oc1ccccc1 [remdesivir, reference compound] | 2940 ± 670 |  | 
Cn1cnc(Cn2c(=O)[nH]/c(=N\c3cc4cn(C)nc4cc3Cl)n(Cc3cc(F)c(F)cc3F)c2=O)n1 [Compound S-217622] |  |  | EC50 (SARS-CoV-2 [4]): 370 nM
O=c1[nH]c2ccc(Cl)cc2c(-c2ccccc2)c1SC(=S)N1CCCCC1 [Compound 6b, 6-chloro-2-oxo-4-phenyl-1,2-dihydroquinolin-3-yl piperidine-1-carboditioate] |  |  | EC50 (SARS-CoV-2 [1]; [9]): 7620 ± 1840 nM
CC1CCCCN1C(=S)Sc1c(-c2ccccc2)c2cc(Cl)ccc2[nH]c1=O (stereo not drawn) [Compound 6c, 6-chloro-2-oxo-4-phenyl-1,2-dihydroquinolin-3-yl 2-methylpiperidine-1-carboditioate] |  | 265 to 266 | EC50 (SARS-CoV-2 [1]; [9]): 22400 ± 2580 nM
Cc1cc2c(cc1C)N(C(=O)COc1ccc3ccccc3c1)C(C)(C)c1ssc(=S)c1-2 [Compound 3a] | 510 ± 410 | 189 to 190 | 
CN1CCN(c2nc(Nc3cccc4ccccc34)nc(Nc3cccc4ccccc34)n2)CC1 [Compound 9c, 6-(4-methylpiperazin-1-yl)-N,N ^′ -di(naphthalen-1-yl)-1,3,5-triazine-2,4-amine] | 19600 ± 2940 | 160 to 161 | 
c1ccc2cc(Nc3nc(Nc4ccc5ccccc5c4)nc(N4CCCCCC4)n3)ccc2c1 [Compound 9a, 6-(azepan-1-yl)-N,N ^′ -di(naphthalen-2-yl)-1,3,5-triazine-2,4-diamine] | 18200 ± 4200 | 164 to 165 | 
Clc1ccc2nc(OCc3ccccc3Cl)c(N3CCOCC3)c(-c3ccccc3)c2c1 [Compound 6a, 6-chloro-2-[(2-chlorobenzyl)oxy]-3-(morpholin-4-yl)-4-phenylquinoline] | 4770 ± 1870 |  | 
Cc1ccc2c(c1)N(C(=O)COc1ccc3ccccc3c1)C(C)(C)c1ssc(=S)c1-2 [Compound 3b] | 1160 ± 230 | > 144 | 
Cn1nc(-c2ccc(C(F)(F)F)cc2)nc2c(=O)n(C)c(=O)nc1-2 [Valrycin B] |  |  | EC50 (virus replication in cell culture) (SARS-CoV-2 [5]): submicromolar
COc1ccc2c(c1)-c1c(ssc1=S)C(C)(C)N2C(=O)COc1ccc2ccccc2c1 [Compound 3d] | 9400 ± 1670 | 136 to 137 | 
CC(C)(C)[C@H](NC(=O)C(F)(F)F)C(=O)N1C[C@H]2[C@@H]([C@H]1C(=O)N[C@H](C#N)C[C@@H]1CCNC1=O)C2(C)C [PF-07321332, nirmatrelvir] |  |  | EC50 (SARS-CoV-2 [6]): 85.3 nM
CC(C)C[C@@H](C=O)NC(=O)[C@H](CC(C)C)NC(=O)[C@H](CC(C)C)NC(=O)OCc1ccccc1 [MG–132] (Cbz-Leu-Leu-Leu-aldehyde) |  |  | EC50 (SARS-CoV-2 [7]): 100 nM
CC(NC(=O)C(Cc1ccccc1)NC(=O)OCc1ccccc1)C(=O)F (stereo not drawn) [Z-FA-FMK] |  |  | EC50 (virus replication in cell culture) (SARS-CoV-2 [5]): submicromolar
